Measurements published in patent EP0272791A2 (priority 1986, dated 1988).
Values joined by “and” are separate entries in the source; they are usually repeats but may differ in a detail not shown here. Identical values can stand only once. “Also recorded” adds a separate entry of the source. Like-named read-outs stand apart in the source and are kept apart here.

What was measured:
multiple myeloma = assay: differential staining cytotoxicity assay (DiSC), fresh tumor specimens; conditions: metachronous assays, no intervening therapy, patient MM-B, two dates
CLL [1] = conditions: for Treated patients, Sensitive / Untreated patients, Sensitive: sensitive: < 30% cell survival
[2] = tested on: Non-Small Cell Lung Cancer; assay: differential staining cytotoxicity assay (DiSC), fresh tumor specimens; format: cell-based, human; conditions: active = < 30% cell survival; concentrations of Table 1
Small Cell Lung Cancer = assay: as above; format: cell-based, human; conditions: active = < 30% cell survival; concentrations of Table 1
Assorted solid tumors = assay: as above; format: cell-based, human; conditions: for % of all specimens tested which were "sensitive" in vitro (< 30% cell survival): dexamethasone 0.4 μg/ml, cytarabine […], continuous 4-day exposure
ALL = conditions: for Treated patients, Resistant / Untreated patients, Resistant / Treated patients, Sensitive / Untreated patients, Sensitive: No. of patients; for Treated patients, Resistant / Untreated patients, Resistant: resistant: > 30% cell survival; for Treated patients, Sensitive / Untreated patients, Sensitive: sensitive: < 30% cell survival; for in vitro activity (in words): active = < 30% cell survival, concentrations of Table 1; for % of all specimens tested which were "sensitive" in vitro (< 30% cell survival): dexamethasone 0.4, cytarabine 3.3, vincristine […] continuous 4-day exposure, mechlorethamine 3.5, doxorubicin 1.67 μg/ml 1-hour exposure
ANLL = assay: differential staining cytotoxicity assay (DiSC), fresh tumor specimens; format: cell-based, human; conditions: for % of all specimens tested which were "sensitive" in vitro (< 30% cell survival): dexamethasone 0.4, cytarabine 3.3, vincristine […] continuous 4-day exposure, mechlorethamine 3.5, doxorubicin 1.67 μg/ml 1-hour exposure
tumor cell specimens = assay: differential staining cytotoxicity assay (DiSC), general statements on drug exposure; format: cell-based, human; conditions: for activity in the assay at a 1-hour exposure (in words): must be tested at a continuous exposure
CML-blast crisis = assay: differential staining cytotoxicity assay (DiSC), fresh tumor specimens; conditions: patient CML-BC, 11/09/82 before and 12/14/82 after V + P
[3] = tested on: non-Hodgkin's lymphoma, multiple myeloma, and blast crisis CML; conditions: data not shown; neoplasms considered together
CLL [4] = assay: cells; conditions: Homo sapiens, read-out: average % cell survival in vitro, Vincristine 0.08 µg/ml, continuous exposure; metachronous assays, no intervening therapy
[5] = active = < 30% cell survival, concentrations of Table 1
[6] = Cytarabine 1.0 µg/ml, continuous 4-day exposure
[7] = No. of patients, Dexamethasone 0.4 µg/ml, continuous 4-day exposure, resistant: > 30% cell survival
[8] = No. of patients, Dexamethasone 0.4 µg/ml, continuous 4-day exposure
[9] = No. of patients, Dexamethasone 4.0 µg/ml, continuous 4-day exposure, resistant: > 30% cell survival
[10] = No. of patients, Dexamethasone 4.0 µg/ml, continuous 4-day exposure
[11] = Dexamethasone 0.4 µg/ml, continuous 4-day exposure
[12] = Dexamethasone 4.0 µg/ml, continuous 4-day exposure
[13] = Doxorubicin 1.67 µg/ml, 1-hr exposure
[14] = cells from relapsed patients compared with untreated patients
[15] = Vincristine 0.08 µg/ml, continuous exposure, metachronous assays, no intervening therapy
[16] = Vincristine 0.08 µg/ml, continuous 4-day exposure

## O=NN(CCCl)C(=O)NCCCl [Carmustine, carmustine]
Multiple myeloma; Homo sapiens, 1 h, read-out: average % cell survival in vitro, Carmustine […], 1 hour exposure
  viability at 11 µg/mL: 15%

## N.N.[Cl][Pt][Cl] [Cisplatin, cisplatin]
CLL [1]; [5]
  in vitro activity (in words): completely refractory
[2]
  in vitro activity (in words): most active agent tested; also recorded: moderate activity
Small Cell Lung Cancer
  in vitro activity (in words): high activity

## Nc1ccn([C@@H]2O[C@H](CO)[C@@H](O)[C@@H]2O)c(=O)n1 [Cytarabine, cytarabine]
Assorted solid tumors
  % of all specimens tested which were "sensitive" in vitro (< 30% cell survival): 3% (31)
ALL; [6]
  Treated patients, Resistant: 7
  Untreated patients, Resistant: 4
  Treated patients, Sensitive: 2
  Untreated patients, Sensitive: 6
ALL
  in vitro activity (in words): active
  % of all specimens tested which were "sensitive" in vitro (< 30% cell survival): 68% (19)
ALL; the higher concentration of cytarabine
  resistance in the assay, relapsed (treated) vs untreated patients (in words): significantly more resistant
ANLL; [5]
  in vitro activity (in words): active
ANLL
  % of all specimens tested which were "sensitive" in vitro (< 30% cell survival): 76% (34)
Tumor cell specimens
  activity in the assay at a 1-hour exposure (in words): not active

## C[C@@H]1C[C@H]2[C@@H]3CCC4=CC(=O)C=C[C@]4(C)[C@@]3(F)[C@@H](O)C[C@]2(C)[C@@]1(O)C(=O)CO [Dexamethasone, dexamethasone]
Assorted solid tumors; [5]
  in vitro activity (in words): not active
Assorted solid tumors
  % of all specimens tested which were "sensitive" in vitro (< 30% cell survival): 0% (34)
CLL [1]; [7]
  Treated patients, Resistant: 13
  Untreated patients, Resistant: 18
CLL [1]; [8]
  Treated patients, Sensitive: 2
  Untreated patients, Sensitive: 10
CLL [1]; [9]
  Treated patients, Resistant: 10
  Untreated patients, Resistant: 15
CLL [1]; [10]
  Treated patients, Sensitive: 2
  Untreated patients, Sensitive: 10
CML-blast crisis; Dexamethasone 4.0 μg/ml, continuous exposure
  % cell survival: 68%
CML-blast crisis; Homo sapiens, read-out: % cell survival, Dexamethasone 4.0 μg/ml, continuous exposure
  viability at 4 µg/mL: 73%
ALL; [11]
  Treated patients, Resistant: 7
  Untreated patients, Resistant: 6
  Treated patients, Sensitive: 4
  Untreated patients, Sensitive: 16
ALL; [12]
  Treated patients, Resistant: 7
  Untreated patients, Resistant: 5
  Treated patients, Sensitive: 3
  Untreated patients, Sensitive: 13
ALL
  in vitro activity (in words): active
  % of all specimens tested which were "sensitive" in vitro (< 30% cell survival): 61% (33)
ANLL
  % of all specimens tested which were "sensitive" in vitro (< 30% cell survival): 7% (41)
Tumor cell specimens
  activity in the assay at a 1-hour exposure (in words): not active

## COc1cccc2c1C(=O)c1c(O)c3c(c(O)c1C2=O)C[C@@](O)(C(=O)CO)C[C@@H]3O[C@H]1C[C@H](N)[C@H](O)[C@H](C)O1 [Doxorubicin, doxorubicin]
[3]
  resistance in vitro, previously treated vs previously untreated patients (in words): significantly more resistant
CLL [1]; prior treatment with alkylating agents (usually chlorambucil or cyclophosphamide) with or without prednisone
  resistance in vitro, previously treated vs previously untreated patients (in words): significantly more resistant
CML-blast crisis; Doxorubicin 1.6 μg/ml, 1 hour exposure, 60 min
  % cell survival: 86% and 59%
ALL; [13]
  Treated patients, Resistant: 7
  Untreated patients, Resistant: 1
  Treated patients, Sensitive: 4
  Untreated patients, Sensitive: 10
ALL
  in vitro activity (in words): somewhat more sensitive than ANLL
  % of all specimens tested which were "sensitive" in vitro (< 30% cell survival): 72% (18)
ALL; [14]
  resistance in the assay, relapsed (treated) vs untreated patients (in words): significantly more resistant
ANLL
  % of all specimens tested which were "sensitive" in vitro (< 30% cell survival): 48% (27)

## N[C@@H](Cc1ccc(N(CCCl)CCCl)cc1)C(=O)O [Melphalan, melphalan]
CLL [1]
  Treated patients, Resistant: 11 and 8

## CC[C@]1(O)C[C@H]2CN(CCc3c([nH]c4ccccc34)[C@@](C(=O)OC)(c3cc4c(cc3OC)N(C=O)[C@H]3[C@@](O)(C(=O)OC)[C@H](OC(C)=O)[C@]5(CC)C=CCN6CC[C@]43[C@@H]65)C2)C1 [Vincristine, vincristine]
CLL [1]; [15]
  average % cell survival in vitro: 48%
Multiple myeloma; Homo sapiens, read-out: average % cell survival in vitro, Vincristine 0.08 µg/ml, continuous exposure
  viability at 0.08 µg/mL: 0%
Multiple myeloma; Vincristine 0.08 µg/ml, continuous exposure
  average % cell survival in vitro: 0%
CLL [4]
  viability at 0.08 µg/mL: 46%
CML-blast crisis; Homo sapiens, read-out: % cell survival, Vincristine 0.08 μg/ml, continuous exposure
  viability at 0.08 µg/mL: 69%
CML-blast crisis; Vincristine 0.08 μg/ml, continuous exposure
  % cell survival: 71%
ALL; [16]
  Treated patients, Resistant: 10
  Untreated patients, Resistant: 6
  Treated patients, Sensitive: 1
  Untreated patients, Sensitive: 10
ALL; [15]
  average % cell survival in vitro: 44% and 71%
ALL
  in vitro activity (in words): considerably more sensitive
  % of all specimens tested which were "sensitive" in vitro (< 30% cell survival): 56% (25)
ALL; [14]
  resistance in the assay, relapsed (treated) vs untreated patients (in words): significantly more resistant
ANLL
  % of all specimens tested which were "sensitive" in vitro (< 30% cell survival): 22% (23)
Tumor cell specimens
  activity in the assay at a 1-hour exposure (in words): not active

## O=P1(N(CCCl)CCCl)NCCCO1 (centres unmarked) [cyclophosphamide]
Tumor cell specimens
  activity in vitro (in words): not active in vitro
